For 86 compounds, melting point results are on record in a melting point compilation (Tetko et al.; mined from patent text by program, amines drawn as free bases though some values may be those of a salt).

A word on the melting point: it is the temperature of the solid-liquid transition.

In turn, `O=[N+]([O-])C(F)(CCc1nnc(C(F)(F)C(F)(F)C(F)(F)F)o1)[N+](=O)[O-]` displayed a melting point of 21 to 22 °C.

For the compound `CN(C)C(=O)Sc1ccc(C(=O)c2cccc(C#N)c2)cc1`, the melting point was 150 °C.

In turn, `Cn1ccnc1SCC(=O)Nc1ccc(-c2ccccc2)cc1` registered a melting point of 151 to 154 °C.

Turning to `N#Cc1cc(NCc2cc3c(cc2O)CCO3)cs1`, the melting point was 138 to 139 °C.

Consider `COC(=O)C(O[Si](C)(C)C(C)(C)C)c1ccccc1O` (stereo unspecified), for which the melting point is 103 to 104 °C.

Compound `CCCC(=O)c1ccc(C(=O)O)cn1` came in with a melting point of 128 to 130 °C.

Take `COc1cc2c(cc1Nc1ncc(Cl)c(Nc3ccc(C(N)=O)cc3OC)n1)CCN(CCS(C)(=O)=O)CC2`: the melting point was in the range of 207 to 217 °C.

`Cc1cc(C)cc(-c2nc(N)sc2-c2ccnc(NCc3ccccc3)c2)c1` yielded a melting point of 99 to 102 °C.

Consider `COc1ccc(-c2nc3cc(F)ccc3s2)cc1OC(=O)c1ccc([N+](=O)[O-])cc1`, for which the melting point came to 198 °C.

Consider `CCN(CC)C(=O)COC(=O)c1cccc(NC(=O)C(CSC(C)=O)Cc2ccccc2)c1` (stereo unspecified), for which the melting point fell in the range of 143 to 144 °C.

With `O=c1c2cc(F)c(N3CCCC3)cc2n(-c2cccc(F)c2)c(=O)n1O`, the melting point lay within 239 to 241 °C.

In the case of `Oc1ccc(C2COc3c(ccc(O)c3O)C2)cc1` (stereo unspecified), the melting point was in the range of 225 to 226 °C.

Regarding `[N-]=[N+]=NCCc1ccc(C(=O)O)cc1`, the melting point lay within 130 to 131 °C.

In turn, `CCNCC1CN(c2c(F)cc3c(=O)c(C(=O)O)cn(C4CC4)c3c2Cl)CC1C` (stereo unspecified) gave a melting point of 254 to 257 °C.

On to `CS(=O)(=O)c1ccc(Oc2ccc(C#N)cc2)nc1`, for which the melting point lay in the range of 195 to 196 °C.

For `COC(=O)CCCC#Cc1cc(Cl)ccc1NS(=O)(=O)c1c(C)noc1C`, the melting point lay within 107 to 109 °C.

Compound `COC(=O)C1(NC(=O)Cc2cc(-c3ccc(Cl)cc3)ccc2Cl)CCCC(C(F)(F)F)C1` (stereo unspecified) came in with a melting point of 148 °C.

On to `COC(=O)c1cc(OP(=O)(OC)OC)c(C(=O)OC)s1`, for which the melting point is 60 °C.

With `O=C(OCC1CCc2c(O)cccc2C1)N(c1ccccc1)c1ccccc1` (stereo unspecified), the melting point is 96 to 98 °C.

Compound `Cc1cccc(Nn2cnc(C)c2-c2cccc(C#N)c2)c1` gave a melting point of 138 to 140 °C.

Consider `CCOC(=O)c1c(OC(=O)CCl)c2ccccc2c2nc3ccccc3nc12`, for which the melting point was 208 to 209 °C.

`CCSc1cc(C)nc(SCC)c1NC(=O)CCCCCCSc1nc2c(C)c(Cl)cc(C(C)C)c2o1` gave a melting point of 117 to 120 °C.

Take `CCCCCCCCCCOc1cc2c(cc1CCC(=O)O)C(=O)c1cc(C(=O)O)ccc1-2`: the melting point is 218 to 220 °C.

For the compound `CC1CCN(C(=O)C2Cc3ccccc3N2c2ccc(=O)n(C)n2)C1` (stereo unspecified), the melting point lay in the range of 150 to 154 °C.

`CCOC(=O)C(Cc1ccc(C(F)(F)F)cc1)C(=O)c1ccncc1` (stereo unspecified) had a melting point of 64 to 65 °C.

With `COc1ccc(S(=O)(=O)Nc2ccccc2NC(=O)c2cccc(O)c2)cc1`, the melting point was 191 to 192 °C.

`CN(Cc1ccc(S(C)(=O)=O)s1)C(=O)C12CC3CC(CC(C3)C1)C2` gave a melting point of 114 to 116 °C.

`COc1cc2c(cc1C=O)C(C)(C)CO2`: the melting point lay in the range of 75 to 76 °C.

As for `CCOCc1nc2c(N)nc3ccccc3c2n1CCCCCS(=O)(=O)NCc1ccc(OC)cc1`, the melting point lay in the range of 177 to 178 °C.

Compound `CCOc1cc2c(cc1OC)C(c1cnc(OC)nc1)=N[C@@H]1CC[C@@H](O)C[C@H]21` came in with a melting point of 124 °C.

The compound `CCOC(=O)c1nn(-c2ccccc2)c2c1CCCc1ccccc1-2` showed a melting point of 110 to 111 °C.

As for `CC#CCOc1ccc(SC(C(=O)NO)c2ccc(-c3cccs3)cc2)cc1` (stereo unspecified), the melting point was 182 °C.

Take `CC(C)Nc1nc2c(F)c(F)c(F)cc2n1[C@@H]1O[C@H](C)[C@@H](O)[C@H]1O`: the melting point lay within 148 to 151 °C.

In the case of `CC(C)(C)NC(=O)[C@@H]1CCCC[C@H]1C[C@@H](O)[C@H](Cc1ccccc1)NC(=O)[C@H](CC(N)=O)NC(=O)c1cc(Cl)cc(Cl)c1`, the melting point is 220 to 226 °C.

With `COc1ccc(C(Cl)=CC(=O)C(F)(F)C(F)(F)F)cc1OC`, the melting point came to 67 °C.

`O=C(c1ccccc1)c1ccc(OCCO)cc1` returned a melting point of 82 °C.

As to `CCCc1cc(-c2ccc(Cl)cc2)nc2c(C(=O)Nc3cccc(S(=O)(=O)NC(C)(C)CO)c3)cnn12`, the melting point was 207 to 208 °C.

Turning to `CC12CC=CCC1CCC1C2CCC2(C)C(C(N)=O)CCC12` (stereo unspecified), the melting point was in the range of 199 to 202 °C.

Regarding `Cc1csc(Cc2ccc([N+](=O)[O-])cc2)n1`, the melting point is 81 to 82 °C.

For the compound `O=C(Nc1ccc(F)cn1)c1cc(-c2ccc(Cl)c(Cl)c2)nc2ccccc12`, the melting point was 204 to 205 °C.

`Cc1cc(C(=O)N2Cc3cccn3Cc3ccccc32)ccc1I` registered a melting point of 152 to 153 °C.

`CCOC(=O)c1ncc2[nH]c3cccc(CO)c3c2c1COC` showed a melting point of 139 to 140 °C.

`CS(=O)CCCn1c(=N)sc2cc(OC(F)(F)F)ccc21` (racemic) had a melting point of 114 °C.

With `COc1ccc(-c2c3c(cc4ccc5c(c24)OCO5)C(=O)NC3=O)cc1`, the melting point lay in the range of 311 to 313 °C.

Take `Cn1cncc1S(=O)(=O)O`: the melting point was 286 to 287 °C.

`O=C(NCC1CCCCC1)c1c(Cl)ccc2nc(CCCCc3nnn[nH]3)ccc12` registered a melting point of 90 to 93 °C.

In turn, `CCOc1ccc(CCNC(=O)c2cnc3ccccc3c2)cc1S(N)(=O)=O` registered a melting point of 222 to 231 °C.

The compound `Oc1cccc(-c2c3ccccc3c(Br)c3sc4ccccc4c23)c1` yielded a melting point of 110 to 111 °C.

The compound `CC(C)(C)C(=O)C(=CC(=O)c1ccc(Cl)cc1)n1cncn1` showed a melting point of 140 °C.

The compound `CCOc1ccc2c(c1)n(C1CCCCC1)c(=O)n2Cc1ccc(S(=O)(=O)NC(C)(C)CC)cc1` displayed a melting point of 165 °C.

Compound `Cc1ccc(C)c(C(=O)NC(C)(C)C)c1` returned a melting point of 80 to 82 °C.

As to `OC(c1ccccc1)C1CCN(CCc2ccccc2)CC1` (stereo unspecified), the melting point was in the range of 125 to 128 °C.

For the compound `Cc1cc2c(c(C)c1Br)C(c1ccc(C(C)C)cc1)CS2` (stereo unspecified), the melting point lay within 98 to 100 °C.

Take `COc1ccc(-c2ccc3c(C(=O)N(C)C)cccc3c2)cc1`: the melting point lay within 113 to 116 °C.

The compound `Cn1c(C(F)(F)F)cc(=O)n(-c2cc(Oc3ccccc3O)c(Cl)cc2F)c1=O` returned a melting point of 55.4 °C.

`Cn1cc2c(n1)-c1c(Cc3ccccc3)sc(C(N)=O)c1CC2`: the melting point lay in the range of 212 to 213 °C.

Compound `O=C(O)C1=Cc2cc([N+](=O)[O-])ccc2OC1C(F)(F)F` (stereo unspecified) came in with a melting point of 187 to 189 °C.

As to `CCOC(=O)C(Cc1ccccc1)NC(=O)N(N(CCCl)S(C)(=O)=O)S(C)(=O)=O` (stereo unspecified), the melting point lay within 106 to 107 °C.

Regarding `COC(=O)CSCC(=O)c1ccc2[nH]c(=O)[nH]c2c1`, the melting point lay in the range of 177 to 178 °C.

`N#Cc1c(-c2cccc(C(=O)N3CCOCC3)c2)cc(-c2ccccc2O)nc1NC(=O)c1cccs1` gave a melting point of 253 to 254 °C.

The compound `CCOc1c(C=NOCc2ccccc2)c(=O)n(C)c(=O)n1C` had a melting point of 93 to 94 °C.

Take `O=C(NCCCCCCCCCCCNC(=O)c1ccc(OC(F)(F)F)cc1)c1ccc(OC(F)(F)F)cc1`: the melting point is 142 °C.

With `Nc1ccc(NC(=O)c2ccc(N)cc2O)cc1`, the melting point fell in the range of 235 to 238 °C.

With `C=CCNC(=O)N1CCc2cc(S(=O)(=O)N3CC(c4ccccc4)NC3=O)ccc21` (stereo unspecified), the melting point fell in the range of 217 to 219 °C.

`CC(=O)OC(CF)c1ccccc1S(N)(=O)=O` (stereo unspecified) had a melting point of 122 to 124 °C.

`O=C(O)C1(CS(=O)(=O)c2ccc(Oc3ccccc3)cc2)CCOCC1`: the melting point was in the range of 162 to 165 °C.

The compound `NC(=O)[C@@H]1[C@H](Nc2c(Br)cnc3[nH]c(-c4cccc(CN5CCOCC5)c4)nc23)[C@H]2C=C[C@@H]1C2` had a melting point of 184 to 185 °C.

The compound `OC(c1ccc(Cl)cc1)(c1ccc(Cl)cc1)c1nccn1Cc1ccc(Cl)cc1` had a melting point of 171 to 173 °C.

In turn, `CCOC(=O)C=Cc1cc(-c2ccc3c(c2)C(C)(C)CCC3(C)C)cs1` registered a melting point of 82 to 84 °C.

Consider `COc1cccc(Cn2c(=O)[nH]c3cc(Cl)cc(Cl)c3c2=O)c1`, for which the melting point fell in the range of 216 to 220 °C.

The compound `CCc1ccc(/C=C/c2cc(OC)c(OC)c(OC)c2)cc1` returned a melting point of 98 to 100 °C.

As to `C=Cc1c(NC(=O)OC(C)(C)C)cccc1[N+](=O)[O-]`, the melting point fell in the range of 120 to 121 °C.

`CS(=O)(=O)c1ccc(-n2nc(C(F)(F)F)cc2-c2ccc(-c3cnco3)cc2)cc1` showed a melting point of 178 to 180 °C.

`CCC(C)P(=S)(NP(=S)(C(C)CC)C(C)CC)C(C)CC` (stereo unspecified) displayed a melting point of 110 to 114 °C.

`CC(=O)Nc1cc(O)c(C(=O)NC2CCN(Cc3ccccc3)CC2)cc1[N+](=O)[O-]` registered a melting point of 220 to 222 °C.

Regarding `CC=NN(C(=O)c1ccccc1)c1ccc(OC)c(F)c1`, the melting point lay within 110 to 112 °C.

`COC(=O)c1cc(-c2ccc(OC)c(F)c2)nn(CC=Cc2ccc(Cl)cc2)c1=O` yielded a melting point of 131 to 132 °C.

`COCC1CN(CCOc2ccc(NC(=O)Nc3cc(C(C)(C)C)nn3-c3ccc(C)cc3)c3ccccc23)CCO1` (stereo unspecified): the melting point lay within 85 to 90 °C.

For `Cc1c(NC(=O)c2ccc(OC[C@@H]3CCCO3)cc2)ccc2cc(CNC3CCCC3)[nH]c12`, the melting point is 159 to 163 °C.

The compound `C=CC(C)(O)C#Cc1ncn2c1CN(C)C(=O)c1c(Cl)cccc1-2` (stereo unspecified) gave a melting point of 185 to 187 °C.

`CCN(c1nc(C)cc(C(C)Cn2cnnn2)n1)c1ccc(C(C)C)cc1Br` (stereo unspecified) registered a melting point of 127 to 129 °C.

Consider `CC(N)c1ccccc1O` (single isomer, unassigned; (+)), for which the melting point lay within 83 to 83.5 °C.

In the case of `Fc1ccc(N2CCN(CCCc3[nH]nc4c3CSCC4)CC2)cc1`, the melting point was 110 to 111 °C.

The compound `CCCCn1ccc(-c2ccc(C(=O)N3Cc4cccn4Cc4ccccc43)cc2)n1` registered a melting point of 122 to 123 °C.

Compound `FC(F)c1nc2ccccc2n1-c1nc(Sc2ccccc2)nc(N2CCOCC2)n1` came in with a melting point of 245 to 248 °C.

`Oc1ccc2ccc(C(O)C(F)(F)F)cc2c1` (stereo unspecified) yielded a melting point of 174 to 175 °C.
